Values quoted from earlier work, collected in US20190046547A1, “COMPOSITIONS AND METHODS FOR TREATING CHRONIC WOUNDS” (Hackensack University Medical Center, priority 2016, published 2019).

Tested on: infected pneumonectomy cavity
Conditions: single case

In the case of `OC[C@H]1O[C@@](CO)(O[C@H]2O[C@H](CO)[C@@H](O)[C@H](O)[C@H]2O)[C@@H](O)[C@@H]1O` [granulated sugar], the adverse events is given as “severe hyponatremia and acute renal failure”.
